Results taken from US20010036949A1, “Pharmaceutical composition and method of treatment of diseases of cognitive dysfunction in a mammal” (priority 2000, published 2001).

Assays:
human m2 receptor = biological target: T1, human m2 receptor (Homo sapiens, UniProt P08172); assay: Inhibition of forskolin-stimulated cAMP accumulation, m2 receptor; assay type: cell-based; conditions: standard agonist, typical value, 5 uM forskolin
T1 sequence (P08172 1-466): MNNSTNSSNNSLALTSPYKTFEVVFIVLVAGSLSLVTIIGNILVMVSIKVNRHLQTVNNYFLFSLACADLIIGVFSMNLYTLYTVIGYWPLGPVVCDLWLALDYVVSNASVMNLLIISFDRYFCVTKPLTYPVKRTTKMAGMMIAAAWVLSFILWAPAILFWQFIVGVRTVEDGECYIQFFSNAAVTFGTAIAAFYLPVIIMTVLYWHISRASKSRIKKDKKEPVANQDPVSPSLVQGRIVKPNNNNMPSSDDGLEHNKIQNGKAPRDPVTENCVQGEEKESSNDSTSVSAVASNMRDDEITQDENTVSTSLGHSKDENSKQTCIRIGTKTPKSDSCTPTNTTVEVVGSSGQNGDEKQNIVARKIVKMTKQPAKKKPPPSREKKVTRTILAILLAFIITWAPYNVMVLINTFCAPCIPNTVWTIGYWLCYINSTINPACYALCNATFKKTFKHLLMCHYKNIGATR
Procedure: (§1) The activity of muscarinic receptors can be determined according to the following protocol. Chinese hamster ovary cells (CHO-K1) stably transformed to express human m1-m5_receptors can be obtained from Dr. Tom Bonner (Laboratory of Cell Biology, National Institute of Mental Health, Building 36, Rm 3A-17, National Institute of Health, Bethesda, Md. 20892). Cells are maintained in Dulbecco's Modified Eagle Medium containing 10% fetal calf serum and harvested at confluence by brief incubation in Ca++/Mg++_free phosphate-buffered saline containing 4 mM EDTA.
(§2) Functional responses at m2 and m4 receptors can be determined by measuring inhibition of forskolin-stimulated cAMP accumulation. Harvested cells are preincubated (15 minutes at 20-22° C.) with 3-isobutyl-1-methyl-xanthine ([…]; 0.2 mM) and then incubated (10 minutes at 20-22° C.) in a HEPES-buffered Krebs solution with test compounds in the presence of 5 uM forskolin. The reaction is stopped by the addition of 10N acetic acid and the CAMP content of dried supernatants is determined using a scintillation proximity assay (Amersham).

human m4 receptor = biological target: T2, human m4 receptor (Homo sapiens, UniProt P08173); assay: Inhibition of forskolin-stimulated cAMP accumulation, m4 receptor; assay type: cell-based; conditions: standard agonist, typical value, 5 uM forskolin
T2 construct: host or cells: CHO-K1
T2 sequence (P08173 1-479): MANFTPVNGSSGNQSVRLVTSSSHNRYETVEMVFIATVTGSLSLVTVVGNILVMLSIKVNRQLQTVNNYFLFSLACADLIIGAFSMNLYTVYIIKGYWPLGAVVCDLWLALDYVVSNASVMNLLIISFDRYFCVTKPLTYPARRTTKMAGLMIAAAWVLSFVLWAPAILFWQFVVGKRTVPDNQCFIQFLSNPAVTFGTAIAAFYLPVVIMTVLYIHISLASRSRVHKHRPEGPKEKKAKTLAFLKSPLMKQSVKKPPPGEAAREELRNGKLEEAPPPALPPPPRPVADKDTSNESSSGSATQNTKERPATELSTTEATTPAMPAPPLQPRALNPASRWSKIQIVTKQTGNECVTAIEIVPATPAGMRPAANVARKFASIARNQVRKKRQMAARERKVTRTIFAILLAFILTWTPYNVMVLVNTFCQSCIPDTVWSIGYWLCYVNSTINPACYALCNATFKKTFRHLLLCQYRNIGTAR
Procedure: as §1, §2

Q: Which results are given for C[N+](C)(C)CCOC(N)=O [Carbachol]?
A: inhibition of the forskolin-stimulated cAMP levels (human m2 receptor): 60-80%; inhibition of the forskolin-stimulated cAMP levels (human m4 receptor): 60-80%
